The subject of assay [1] is MHCC97H. Nature of the assay: cells. Particulars: Homo sapiens, 72 h.
Description: Antitumor activity against human MHCC97H cells assessed as inhibition of cell growth measured after 72 hrs by CCK-8 assay
The test system of assay [2] is HCCLM3. Nature of the assay: cells. Particulars: Homo sapiens, HCCLM3, 72 h.
Description: Antitumor activity against human HCCLM3 cells assessed as inhibition of cell growth measured after 72 hrs by CCK-8 assay
In assay [3] the target is T1, Galactosylgalactosylxylosylprotein 3-beta-glucuronosyltransferase 3 (Homo sapiens, UniProt O94766).
T1 sequence (O94766 whole entry): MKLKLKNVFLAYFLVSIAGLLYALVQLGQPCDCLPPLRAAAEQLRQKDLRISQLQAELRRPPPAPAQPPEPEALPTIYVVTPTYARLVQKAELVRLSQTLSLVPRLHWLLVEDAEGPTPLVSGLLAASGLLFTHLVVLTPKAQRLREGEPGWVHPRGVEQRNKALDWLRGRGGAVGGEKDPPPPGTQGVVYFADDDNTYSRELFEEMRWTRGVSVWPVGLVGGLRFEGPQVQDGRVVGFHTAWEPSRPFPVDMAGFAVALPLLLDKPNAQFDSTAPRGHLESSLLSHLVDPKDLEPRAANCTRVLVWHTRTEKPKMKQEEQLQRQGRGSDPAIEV
Nature of the assay: Binding affinity to CM5 sensor chip immobilized human B3GAT3 assessed as dissociation constant by SPR analysis.

Assay [4] deals with MHCC97H. Kind of assay: In vivo-antitumor activity against human MHCC97H cells xenografted BALB/c mouse model assessed as tumor growth inhibitor at 5 mg/kg, IG once daily measured after 31 days relative to control. The settings on record: po, 744 h, read-out: TGI.
The test system of assay [5] is HCCLM3. Nature of the assay: In vivo-antitumor activity against human HCCLM3 cells xenografted BALB/c mouse model assessed as reduction in tumor weight at 5 mg/kg, IG once daily measured after 31 days relative to control. The settings on record: HCCLM3, po, 744 h, read-out: INH.

Regarding `Cc1ccc(C(=O)N2[C@@H]3CC[C@H]2CN(C(=O)C(=O)c2c[nH]c4ccc(Br)cc24)C3)c(Cl)c1`, the IC50 in the assay on MHCC97H [1] came to 18.5 µM; in the assay on HCCLM3 [2] it was 26.7 µM.
Turning to `Cc1ccc(N2CCC(NC(=O)C(=O)c3c[nH]c4ccc(O)cc34)C2=O)c(Cl)c1` (centres undefined), the IC50 is 72.2 µM in the assay on MHCC97H [1] and above 80 µM in the assay on HCCLM3 [2].
For `Cc1ccc(C(=O)N2CCN(C(=O)C(=O)c3c[nH]c4ccc(Br)cc34)CC2)c(Cl)c1` the same measures were 16.3 µM and 25.4 µM.
Taken in the same sequence, the figures for `Cc1ccc(N2CCC(NC(=O)C(=O)c3c[nH]c4ccc(C(=O)O)cc34)C2=O)c(Cl)c1` (centres undefined) were above 80 µM and above 80 µM.
Taken in the same sequence, the figures for `Cc1ccc(N2CCC(NC(=O)C(=O)Nc3ccc4c(c3)C(C)(C)c3ccccc3-4)C2=O)c(Cl)c1` (centres undefined) were 9.7 µM and above 80 µM.
With `Cc1ccc(N2CCC(NC(=O)C(=O)c3c[nH]c4ccc(N)cc34)C2=O)c(Cl)c1` (centres undefined), the 50% inhibitory concentration (IC50) in the assay on MHCC97H [1] and in the assay with HCCLM3 [2] was above 80 µM in each case.
On to `Cc1ccc(C(=O)N(C)C2CCN(C(=O)C(=O)c3c[nH]c4ccc(Br)cc34)CC2)c(Cl)c1`, for which the IC50 in the assay on MHCC97H [1] amounted to 11.8 µM; in the assay on HCCLM3 [2] it was 22.2 µM.
Taken in the same sequence, the figures for `Cc1ccc(C(=O)N2CCC(C)(NC(=O)C(=O)c3c[nH]c4ccc(Br)cc34)CC2)c(Cl)c1` were 21.3 µM and 22.2 µM.
For `Cc1ccc(N2CCC(NC(=O)C(=O)c3c[nH]c4ccc(Br)cc34)C2=O)c(Cl)c1` (centres undefined), the IC50 turned out to be 6.19 µM with MHCC97H [1] and 15.8 µM in the assay with HCCLM3 [2]. In addition, the Kd in assay [3] was 113 µM.
Take `Cc1ccc(N2CCC(NC(=O)C(=O)N3CCCc4ccccc43)C2=O)c(Cl)c1` (centres undefined): the half-inhibitory concentration (IC50) in the assay on MHCC97H [1] and in the assay with HCCLM3 [2] was above 80 µM each time.
Consider `Cc1ccc(N2CCC(NC(=O)C(=O)c3c[nH]c4ccc(Br)cc34)C2=O)cc1` (centres undefined), for which the IC50 in the assay with MHCC97H [1] and in the assay on HCCLM3 [2] was above 80 µM throughout.
Consider `Cc1ccc(N2CCC(NC(=O)CC(=O)Nc3ccc4c(c3)Cc3ccccc3-4)C2=O)c(Cl)c1` (centres undefined), for which the IC50 is above 80 µM in the assay with MHCC97H [1] and 57.3 µM in the assay with HCCLM3 [2].
Taken in the same sequence, the figures for `Cc1ccc(C(=O)N2CCC(NC(=O)C(=O)c3c[nH]c4ccc(Br)cc34)CC2)c(Cl)c1` were 28.1 µM and 1530 µM.
Consider `COc1ccc2[nH]cc(C(=O)C(=O)NC3CCN(c4ccc(C)cc4Cl)C3=O)c2c1` (centres undefined), for which the IC50 came out at 37.8 µM in the assay with MHCC97H [1] and 34.7 µM in the assay with HCCLM3 [2].
For `COC(=O)c1ccc2c(C(=O)C(=O)NC3CCN(c4ccc(C)cc4Cl)C3=O)c[nH]c2c1` (centres undefined) the same measures were 46.8 µM and 54.8 µM.
For the molecule `Cc1ccc(C(=O)NC2CCN(C(=O)C(=O)c3c[nH]c4ccc(Br)cc34)CC2)c(Cl)c1`, the half-inhibitory concentration (IC50) with MHCC97H [1] came out at 61.5 µM; in the assay with HCCLM3 [2], 60.8 µM.
In the case of `O=C(NC1CCN(c2ccc(F)cc2)C1=O)C(=O)c1c[nH]c2ccc(Br)cc12` (centres undefined), the IC50 in the assay on MHCC97H [1] is 11.8 µM; in the assay on HCCLM3 [2], 24.9 µM.
Taken in the same sequence, the figures for `Cc1ccc(C(=O)NC2(C)CCN(C(=O)C(=O)c3c[nH]c4ccc(Br)cc34)CC2)c(Cl)c1` were 27.3 µM and 59.2 µM.
Taken in the same sequence, the figures for `Cc1ccc(N2CCC(NC(=O)C(=O)c3c[nH]c4ccccc34)C2=O)c(Cl)c1` (centres undefined) were 52.7 µM and 60 µM.
Taken in the same sequence, the figures for `Cc1ccc(N2CCC(NC(=O)C(=O)c3c[nH]c4ccc(F)cc34)C2=O)c(Cl)c1` (centres undefined) were 35.1 µM and 44.3 µM.
As to `Cc1ccc(N2CCC(NC(=O)C(=O)NC3CCc4ccccc43)C2=O)c(Cl)c1` (centres undefined), the IC50 in the assay with MHCC97H [1] was above 80 µM; in the assay with HCCLM3 [2], 61.4 µM.
For `O=C(NC1CCN(c2ccccc2)C1=O)C(=O)c1c[nH]c2ccc(Br)cc12` (centres undefined) the same measures were above 80 µM and above 80 µM.
Taken in the same sequence, the figures for `Cc1ccc(N2CCC(NC(=O)C(=O)c3c[nH]c4cc(C(=O)O)ccc34)C2=O)c(Cl)c1` (centres undefined) were above 80 µM and above 80 µM.
Taken in the same sequence, the figures for `Cc1ccc(C(=O)N2CCCC(NC(=O)C(=O)c3c[nH]c4ccc(Br)cc34)C2)c(Cl)c1` (centres undefined) were 17 µM and 31 µM.
With `Cc1ccc(N2CCC(NC(=O)C(=O)c3c[nH]c4ccc(C)cc34)C2=O)c(Cl)c1` (centres undefined), the IC50 in the assay on MHCC97H [1] was 52.8 µM; in the assay on HCCLM3 [2] it was 53.9 µM.
Taken in the same sequence, the figures for `Cc1ccc(N2CCC(NC(=O)C(=O)c3c[nH]c4ccc(Cl)cc34)C2=O)c(Cl)c1` (centres undefined) were 18.4 µM and 31 µM.
With `Cc1ccc(N2CCC(NC(=O)C(=O)Nc3ccc4c(c3)Cc3ccccc3-4)C2=O)c(Cl)c1` (centres undefined), the IC50 was found to be 14.3 µM in the assay with MHCC97H [1] and 14.5 µM in the assay with HCCLM3 [2]. The Kd in assay [3] amounted to 291 µM.
As for `Cc1ccc(N2CCC(NC(=O)C(=O)Nc3ccc4c(c3)OCO4)C2=O)c(Cl)c1` (centres undefined), the values for the half-inhibitory concentration (IC50) in the assay on MHCC97H [1] and in the assay on HCCLM3 [2] were 25.7 µM and 24.7 µM, respectively.
Taken in the same sequence, the figures for `Cc1ccc(N2CCC(NC(=O)C(=O)c3c[nH]c4ccc(Br)cc34)C2=O)cc1Cl` (centres undefined) were 12 µM and above 80 µM.
For `Cc1ccc(C(=O)NCC2CCN(C(=O)C(=O)c3c[nH]c4ccc(Br)cc34)CC2)c(Cl)c1` the same measures were 12.9 µM and 23.6 µM.
For `Cc1ccc(N2CCC(NC(=O)C(=O)Nc3ccc4c(c3)CCC4)C2=O)c(Cl)c1` (centres undefined), the figures for the IC50 in the assay with MHCC97H [1] and in the assay with HCCLM3 [2] were 3.51 µM and 11.7 µM, respectively. The dissociation constant (Kd) in assay [3] is 206 µM.
`Cc1ccc(N2CCC(NC(=O)CC(=O)Nc3ccc(-c4ccccc4)cc3)C2=O)c(Cl)c1` (centres undefined): the values for the concentration for half-maximal inhibition (IC50) in the assay on MHCC97H [1] and in the assay with HCCLM3 [2] were 54.7 µM and 60.4 µM, respectively.
For `Cc1ccc(C(=O)NC2CCN(C(=O)C(=O)c3c[nH]c4ccc(Br)cc34)C2)c(Cl)c1` (centres undefined) the same measures were 19.4 µM and 30.8 µM.
Taken in the same sequence, the figures for `O=C(NC1CCN(c2ccc(OC(F)(F)F)cc2)C1=O)C(=O)c1c[nH]c2ccc(Br)cc12` (centres undefined) were 15.3 µM and 18.6 µM.
Taken in the same sequence, the figures for `Cc1ccc(N2CCC(NC(=O)C(=O)c3c[nH]c4ccc(C#N)cc34)C2=O)c(Cl)c1` (centres undefined) were 33.7 µM and 55.8 µM.
On to `Cc1ccc(C(=O)N2CCC(NC(=O)C(=O)c3c[nH]c4ccc(Br)cc34)C2)c(Cl)c1` (centres undefined), for which the half-maximal inhibitory concentration (IC50) in the assay on MHCC97H [1] was determined as 13 µM; in the assay with HCCLM3 [2], 21.3 µM.
For the molecule `Cc1ccc(N2CCC(NC(=O)C(=O)Nc3ccc(-c4ccccc4)cc3)C2=O)c(Cl)c1` (centres undefined), the IC50 with MHCC97H [1] turned out to be 5.59 µM; with HCCLM3 [2], 17.7 µM. The Kd in assay [3] was determined as 289 µM.
For the molecule `Cc1ccc(N2CCC(NC(=O)C(=O)Nc3ccc4c(c3)OCCO4)C2=O)c(Cl)c1` (centres undefined), the concentration for half-maximal inhibition (IC50) in the assay on MHCC97H [1] worked out at 14.5 µM; in the assay with HCCLM3 [2], 12.2 µM.
As for `COc1cc2nccc(Oc3ccc(NC(=O)NC4CC4)c(Cl)c3)c2cc1C(N)=O` [LENVATINIB], the inhibition in vivo at 5 mg/kg with MHCC97H [4] came out at 85%; in the assay with HCCLM3 [5] it was 94.6%. Further, the IC50 with MHCC97H [1] was above 80 µM; with HCCLM3 [2], 27.8 µM.
